The target in the assay is hMC4R (Homo sapiens, UniProt P32245). Kind of assay: Saturation binding of Eu-labeled probe to Hek293 cells overexpressing hMC4R. Conditions: Kd of labeled ligand compared with parental ligand MSH(4).
hMC4R, sequence (P32245 whole entry): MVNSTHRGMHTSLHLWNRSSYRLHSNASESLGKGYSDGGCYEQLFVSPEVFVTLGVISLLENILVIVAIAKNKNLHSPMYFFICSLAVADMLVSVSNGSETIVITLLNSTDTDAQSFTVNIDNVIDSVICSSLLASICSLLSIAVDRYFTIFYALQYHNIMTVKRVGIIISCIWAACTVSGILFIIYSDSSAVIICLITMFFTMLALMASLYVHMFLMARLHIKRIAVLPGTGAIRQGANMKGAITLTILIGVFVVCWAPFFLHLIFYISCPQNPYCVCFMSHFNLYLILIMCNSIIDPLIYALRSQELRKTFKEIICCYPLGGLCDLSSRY

For `N=C(N)NCCC[C@H](NC(=O)[C@@H](Cc1ccccc1)NC(=O)[C@H](Cc1c[nH]cn1)NC(=O)COCC(=O)NCCCOCCOCCOCCCNC(=O)CN(CCN(CCN(CC(=O)O)CC(=O)O)CC(=O)O)CC(=O)O)C(=O)N[C@@H](Cc1c[nH]c2ccccc12)C(N)=O` [compound 1, Eu-DTPA-PEGO-His-DPhe-Arg-Trp-NH2], the “Affinity for hMC4R, fold lower than the parental ligand” value was “approximately 10 fold”.

The values above are taken from article PMC2857964 (Bioorganic & medicinal chemistry letters, 2010).
